From publication PMC7381750, “JP1 suppresses proliferation and metastasis of melanoma through MEK1/2 mediated NEDD4L-SP1-Integrin αvβ3 signaling” (Theranostics, 2020) come the findings set out here.

The test system of one data set is B16F10 cell. The data set can be described thus: B16F10 melanoma-bearing model, JP1 and DTIC alone or in combination. The class given is in vivo, mouse. The settings on record: 50 mg/kg JP1 combined with 40 mg/kg DTIC. The procedure:
(A-C) (A) Schematic representation of the B16F10 and MEWO cells melanoma-bearing model for JP1 treatment (n = 6 per group). JP1 and its control agents were administered by intraperitoneal injection. […] (D-G) (D) Schematic representation of the B16F10 cell melanoma passive metastasis model for JP1 treatment. JP1 and its control agents were administered by intraperitoneal injection. […] (F) The representative melanoma lung metastatic images by H&E-staining (scale bars, 1000 μm). […] (J-L) (J) Schematic representation of the B16F10 cell melanoma-bearing model (n= 6 per group). Both JP1 and DTIC alone or in combination treatments and relative control was administered by intraperitoneal injection in mice.
The chemotherapeutic agent dacarbazine (DTIC) is currently as the first line drug used to treat metastatic melanoma in clinic, and was reported to cause painful symptoms and acquired resistance, compromising patient quality of life. To determine the possibility as a combination therapy between DTIC and JP1, we completed a joint treatment of DTIC and JP1 for melanoma tumor-bearing model (Figure 2J).

A short description of the next data set: LD50 in mouse. The note with it: in vivo.
Data set [1] in a line: Cynomolgus monkey toxicity test: body weight. It is filed as in vivo. The procedure:
(§1) The test was completed by Suzhou Xishan Zhongke Drugs Research and Development Co., Ltd. (Xishan, Suzhou, China). The study proposal was approved by the Institute Animal Care and Use Committee (IACUC, ID19012912). Cynomolgus monkeys (3-4 years old) were randomly divided into three groups (n = 4 per group, half male and female); and the monkeys were treated with solvent control (Mannitol in saline, 75 mg/kg/d), JP1 (45 mg/kg/day) and JP1 (150 mg/kg/day) for 14 days. The experiment was ended on 15th day and the animals were euthanasia. The relevant clinical parameters were determined on 7th and 13th day, respectively. The observed parameters were including clinical symptoms, weight, food intake, body temperature, ophthalmology, electrocardiogram, blood routine examination, blood biochemistry, blood coagulation, urinalysis, immunotoxicity.
(§2) Supplementary database files: Cynomolgus monkey toxicity test […]
(§3) The study was conducted by a contract service in Suzhou Xishan Zhongke Drugs Research and Development Co., Ltd. (Xishan, Suzhou, China). All the use of animals were approved by the Institute Animal Care and Use Commttee, IACUC. IACUC no. :
(§4) ID19012912. The veterinarian will supervise the breeding and welfare of the animals. The company follows the Guide for the Care and Use of Laboratory Animals (8th ed., 2011).
(§5) Cynomolgus monkeys (3-4 years old) were randomly divided into three groups (n = 4 per group, two males and two females for each group); and treated q.d./i.v. with Mannitol (75 mg/kg/d in saline), JP1 (45 mg/kg/d) and JP1 (150 mg/kg/d) for 14 days, respectively. JP1 was dissolved in saline (100 mg/2 ml) and administered intravenously at a rate of 3 ml/min.
(§6) The JP1 was provided by Hybio Pharmaceutical Co., Ltd. (Shenzhen, China); the production of small packaging preparation (100 mg/vial in freeze-dried powder, purity > 98%; -20 °C for storage and transportation) was completed under strict GMP conditions and quality control procedures for biological preparations. No recovery period was set for this test; the experimental model was ended on 15th day. […]
(§7) relevant clinical indicators in two JP1 groups were no difference compared with those in […]
(§8) Level (NOAEL) of JP1 was 150 mg/kg.

Data set [2] in a line: Cynomolgus monkey toxicity test: blood coagulation. It is filed as in vivo. The procedure: as §1, §2, §3, §4, §5
as §6, with “day. The relevant clinical indicators including symptoms, body weight, food intake, temperature, ophthalmology, electrocardiogram, blood routine examination, blood biochemistry, blood coagulation, urinalysis, immunotoxicity were determined on 7th and 13th, respectively.” for “day.”
indicators in all animals, and the pathological observation of organs was not determined. […]
as §7, §8

A short description of the next data set: in vivo. The note with it: male, Sprague-Dawley, rat, ip, 100 mg/kg, half-life (t1/2).
The mark [3] stands for this setting: JP1 45 mg/kg/d i.v., D7, monkeys 1105,1106,2107,2108, 45 mg/kg/day.
Where [4] appears, read: JP1 150 mg/kg/d i.v., D7, monkeys 1209,1210,2211,2212, 150 mg/kg/day.
[5] abbreviates: JP1 45 mg/kg/d i.v., D13, monkeys 1105,1106,2107,2108, 45 mg/kg/day.
The mark [6] stands for this setting: JP1 150 mg/kg/d i.v., D13, monkeys 1209,1210,2211,2212, 150 mg/kg/day.

Several values for one entry are separate records, joined by “and”; a condition that tells them apart may be missing. Equal entries are not always repeated. Non-standard residues stand in square brackets, D forms with d. Residues, ends and D or L forms follow the SMILES beside them. pS = N[C@@H](COP(=O)(O)O)C(=O)O

Method for in vivo: The drug half-life (t1/2) is calculated by the formula t1/2 = 0.693/k, where k is the elimination rate constant (k = (Inc1-Inc2)/(t2-t1)).

Broadly, the LD50 is the dose at which mortality reaches 50%. Usually half-life stands for the time in which the quantity being followed falls by half. As to `CC(=O)N[C@@H](Cc1ccccc1)C(=O)N1CCC[C@H]1C(=O)NCC(=O)N[C@@H](COP(=O)(O)O)C(=O)N[C@@H](CC(=O)O)C(=O)N[C@@H](CCCNC(=N)N)C(=O)N[C@@H](Cc1ccccc1)C(=O)NCC(=O)NCC(=O)NCC(=O)NCC(=O)N[C@@H](CCCNC(=N)N)C(=O)NCC(=O)N[C@@H](CC(=O)O)C(N)=O` [JP1] (Ac-FPG[pS]DRFGGGGRGD-NH2), the body weight curve result in the data set with B16F10 cell is listed as “stable”. In the data set with B16F10 cell (compared to DTIC alone), the liver injury result is given as “without obvious liver injury”. Also, the 50% lethal dose (LD50) in “LD50 in mouse” was more than 5000 mg/kg. Further, the Body weight was 2.1 kg and 2.2 kg and 2.3 kg in data set [1] (setting [3]); 2.5 kg and 2.4 kg in data set [1] (JP1 45 mg/kg/d i.v., D14, monkeys 1105,1106,2107,2108, 45 mg/kg/day); 2.4 kg and 2.2 kg and 2.3 kg in data set [1] (setting [4]); 2.2 kg and 2.3 kg and 2.6 kg in data set [1] (JP1 150 mg/kg/d i.v., D14, monkeys 1209,1210,2211,2212, 150 mg/kg/day). The APTT in data set [2] (setting [3]) was 23.2 s and 28.0 s and 25.5 s and 25.1 s; in data set [2] (setting [5]) it was 25.3 s and 24.6 s and 24.2 s and 22.6 s; in data set [2] (setting [4]), 23.7 s and 25.2 s and 33.8 s and 27.7 s; in data set [2] (setting [6]), 23.5 s and 24.9 s and 29.9 s and 27.8 s. For the same compound, the FIB is 2.59 g/L and 2.84 g/L and 2.33 g/L and 2.34 g/L in data set [2] (setting [3]); 3.02 g/L and 2.81 g/L and 2.68 g/L and 2.51 g/L in data set [2] (setting [5]); 2.71 g/L and 3.21 g/L and 2.66 g/L and 2.89 g/L in data set [2] (setting [4]); 2.90 g/L and 2.99 g/L and 2.97 g/L and 3.27 g/L in data set [2] (setting [6]). In addition, the PT was 11.8 s and 11.0 s and 12.2 s and 11.9 s in data set [2] (setting [3]); 11.7 s and 12.2 s and 10.9 s in data set [2] (setting [5]); 11.8 s and 12.5 s and 11.7 s and 12.0 s in data set [2] (setting [4]); 11.9 s and 12.4 s and 11.8 s and 11.7 s in data set [2] (setting [6]). Moreover, the half-life in the data set “in vivo” is approximately 1.32 h.
